# Data published in ChEMBL document CHEMBL4825684, “Design, synthesis and biological evaluation of N-anthraniloyl tryptamine derivatives as pleiotropic molecules for the therapy of malignant glioma” (Eur J Med Chem, 2021).
# Active and inactive are the calls of the source. The rule behind the calls is not given here.
# Key:
# C6 [1] = assay: Antitumor activity against rat C6 cells inoculated orthotopic Sprague-Dawley rat model assessed as increase in rat survival at 50 mg/kg, ip twice a day administered for 25 days (reference value: 16%); assay type: functional; conditions: time 25 day
# C6 [2] = assay: Antitumor activity against rat C6 cells inoculated orthotopic Sprague-Dawley rat model assessed as decrease in PGE2 in tumor tissue at 50 mg/kg, ip twice a day treated 3 days after tumor cell injection measured for 13 days after tumor implantation […]; assay type: functional, organism-based; conditions: time 3.0 day
# U-87 MG [3] = assay: Antiproliferative activity against human U-87 MG cells assessed as growth inhibition incubated for 72 hrs by CCK-8 assay; assay type: functional, cell-based, U-87MG ATCC
# [4] = Half life in Sprague-Dawley rat at 60 mg/kg, ip measured up to 24 hrs by LC-MS analysis; assay type: ADME, organism-based; conditions: in vivo
# U-251 [5] = assay: Induction of apoptosis in human U-251 cells assessed as early apoptotic cells at 4 uM incubated for 48 hrs by […] double staining based flow cytometry assay (reference value: 0.73%); assay type: functional
# U-87 MG [6] = assay: Induction of apoptosis in human U-87 MG cells assessed as viable cells at 8 uM incubated for 48 hrs by Annexin VIM double staining based flow cytometry assay (reference value: 97.8%); assay type: functional, U-87MG ATCC; conditions: read-out: Activity
# [7] = biological target: Tyrosine-protein kinase JAK2 (Homo sapiens) (UniProt O60674); assay: Inhibition JAK2 phosphorylation in human U-251 cells incubated up to 8 hrs by Western blot analysis; assay type: cell-based; conditions: time hrs <=8
# U-87 MG [8] = assay: Induction of apoptosis in human U-87 MG cells assessed as necrotic cells at 4 uM incubated for 48 hrs by Annexin VIM double staining based flow cytometry assay (reference value: 0.91%); assay type: functional, U-87MG ATCC
# Rattus norvegicus = assay: Anxiolytic activity in rat C6 cells inoculated orthotopic Sprague-Dawley rat model assessed as increase in time spent in central part at 50 mg/kg, ip twice a day administered for 13 days of tumor implantation by open field test relative to control; assay type: functional, organism-based; conditions: time 13.0 day
# [9] = Toxicity in rat C6 cells inoculated orthotopic Sprague-Dawley rat model assessed as body weight change at 50 mg/kg, ip twice a day administered for 13 days of tumor implantation; assay type: organism-based; conditions: in vivo, 312 h, time 13 day
# U-87 MG [10] = assay: Induction of apoptosis in human U-87 MG cells assessed as necrotic cells at 8 uM incubated for 48 hrs by Annexin VIM double staining based flow cytometry assay (reference value: 0.91%); assay type: functional, U-87MG ATCC
# [11] = biological target: Signal transducer and activator of transcription 3 (Homo sapiens) (UniProt P40763); assay: Inhibition of STAT3 nuclear translocation in human U-87 MG cells incubated for 24 hrs by Hoechst staining based fluorescence confocal imaging analysis; assay type: cell-based
# U-87 MG [12] = assay: Induction of apoptosis in human U-87 MG cells assessed as necrotic cells at 2 uM incubated for 48 hrs by […] double staining based flow cytometry assay (reference value: 0.91%); assay type: functional, U-87MG ATCC
# U-251 [13] = assay: Induction of apoptosis in human U-251 cells assessed as necrotic cells at 4 uM incubated for 48 hrs by […] double staining based flow cytometry assay (reference value: 1.32%); assay type: functional
# U-87 MG [14] = assay: Induction of apoptosis in human U-87 MG cells assessed as early apoptotic cells at 2 uM incubated for 48 hrs by […] double staining based flow cytometry assay (reference value: 0.63%); assay type: functional, U-87MG ATCC
# U-87 MG [15] = assay: Antiproliferative activity against human U-87 MG cells assessed as colony formation ratio at 4 uM measured after 24 hrs by plate clone formation assay relative to control; assay type: functional, U-87MG ATCC
# U-251 [16] = assay: Reduction in MMP9 expression in human U-251 cells incubated for 24 hrs by Western blot analysis; assay type: functional, cell-based; conditions: dose 1-4 µM
# U-251 [17] = assay: Induction of apoptosis in human U-251 cells assessed as late apoptotic cells at 2 uM incubated for 48 hrs by […] double staining based flow cytometry assay (reference value: 1.39%); assay type: functional
# [18] = Cmax in Sprague-Dawley rat at 60 mg/kg, ip measured up to 24 hrs by LC-MS analysis; assay type: ADME, organism-based; parameters: route intraperitoneal, dose 60 mg/kg, time <=24; conditions: in vivo
# U-251 [19] = assay: Induction of apoptosis in human U-251 cells assessed as increase in cytochrome c release at 1 to 4 uM incubated for 48 hrs by Western blot analysis relative to control; assay type: functional, cell-based; conditions: dose 1-4 µM
# C6 [20] = assay: Antitumor activity against rat C6 cells inoculated orthotopic Sprague-Dawley rat model assessed as reduction tumor volume at 50 mg/kg, ip twice a day treated 3 days after tumor cell injection measured for 13 days after tumor implantation; assay type: functional, organism-based; conditions: time 3.0 day
# U-87 MG [21] = assay: Cytotoxicity against human U-87 MG cells assessed as cell viability at 4 uM measured up to 24 hrs; assay type: functional, U-87MG ATCC; conditions: time hrs <=24, read-out: Activity
# U-251 [22] = assay: Induction of apoptosis in human U-251 cells assessed as early apoptotic cells at 8 uM incubated for 48 hrs by […] double staining based flow cytometry assay (Rvb+B32 = 0.73%); assay type: functional
# U-251 [23] = assay: Induction of apoptosis in human U-251 cells assessed as necrotic cells at 2 uM incubated for 48 hrs by […] double staining based flow cytometry assay (reference value: 1.32%); assay type: functional
# U-87 MG [24] = assay: Antimigratory activity against human U-87 MG cells assessed as inhibition of migration incubated for 24 hrs by matrigel trans well plate assay; assay type: functional, cell-based; conditions: U-87MG ATCC
# U-251 [25] = assay: Anti-invasion activity against human U-251 cells assessed as inhibition of invasion incubated for 24 hrs by matrigel trans well plate assay; assay type: functional, cell-based; conditions: dose 1-4 µM
# C6 [26] = assay: Antitumor activity against rat C6 cells inoculated orthotopic Sprague-Dawley rat model assessed as suppression of glioma cells to invade the surrounding brain tissue at 50 mg/kg, ip twice a day administered for 13 days of tumor implantation by hematoxylin-eosin staining analysis; assay type: functional, organism-based; conditions: time 13.0 day
# U-251 [27] = assay: Induction of apoptosis in human U-251 cells assessed as necrotic cells at 8 uM incubated for 48 hrs by […] double staining based flow cytometry assay (reference value: 1.32%); assay type: functional
# U-87 MG [28] = assay: Induction of apoptosis in human U-87 MG cells assessed as early apoptotic cells at 8 uM incubated for 48 hrs by […] double staining based flow cytometry assay (reference value: 0.63%); assay type: functional, U-87MG ATCC
# Sequence of Signal transducer and activator of transcription 3 (Homo sapiens) (P40763 whole entry): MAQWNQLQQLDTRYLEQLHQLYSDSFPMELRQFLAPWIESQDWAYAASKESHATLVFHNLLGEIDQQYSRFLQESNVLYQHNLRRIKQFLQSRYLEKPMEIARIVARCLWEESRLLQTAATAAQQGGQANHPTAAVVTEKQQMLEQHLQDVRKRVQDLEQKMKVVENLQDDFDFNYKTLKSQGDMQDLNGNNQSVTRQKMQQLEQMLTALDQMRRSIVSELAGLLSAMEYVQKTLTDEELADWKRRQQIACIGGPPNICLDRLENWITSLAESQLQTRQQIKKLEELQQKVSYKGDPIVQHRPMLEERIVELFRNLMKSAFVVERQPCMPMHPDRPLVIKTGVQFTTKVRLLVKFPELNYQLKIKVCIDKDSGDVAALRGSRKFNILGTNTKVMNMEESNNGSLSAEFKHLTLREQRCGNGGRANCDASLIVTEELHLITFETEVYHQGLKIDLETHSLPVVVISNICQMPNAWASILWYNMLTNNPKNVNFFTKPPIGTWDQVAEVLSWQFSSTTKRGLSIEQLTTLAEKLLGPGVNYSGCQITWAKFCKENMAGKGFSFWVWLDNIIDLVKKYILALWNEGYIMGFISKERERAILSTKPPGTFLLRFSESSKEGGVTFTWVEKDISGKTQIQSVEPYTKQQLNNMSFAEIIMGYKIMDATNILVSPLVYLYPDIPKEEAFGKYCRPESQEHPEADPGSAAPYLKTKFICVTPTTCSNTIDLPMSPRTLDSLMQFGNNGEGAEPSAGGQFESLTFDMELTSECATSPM
# Sequence of Tyrosine-protein kinase JAK2 (Homo sapiens) (O60674 whole entry): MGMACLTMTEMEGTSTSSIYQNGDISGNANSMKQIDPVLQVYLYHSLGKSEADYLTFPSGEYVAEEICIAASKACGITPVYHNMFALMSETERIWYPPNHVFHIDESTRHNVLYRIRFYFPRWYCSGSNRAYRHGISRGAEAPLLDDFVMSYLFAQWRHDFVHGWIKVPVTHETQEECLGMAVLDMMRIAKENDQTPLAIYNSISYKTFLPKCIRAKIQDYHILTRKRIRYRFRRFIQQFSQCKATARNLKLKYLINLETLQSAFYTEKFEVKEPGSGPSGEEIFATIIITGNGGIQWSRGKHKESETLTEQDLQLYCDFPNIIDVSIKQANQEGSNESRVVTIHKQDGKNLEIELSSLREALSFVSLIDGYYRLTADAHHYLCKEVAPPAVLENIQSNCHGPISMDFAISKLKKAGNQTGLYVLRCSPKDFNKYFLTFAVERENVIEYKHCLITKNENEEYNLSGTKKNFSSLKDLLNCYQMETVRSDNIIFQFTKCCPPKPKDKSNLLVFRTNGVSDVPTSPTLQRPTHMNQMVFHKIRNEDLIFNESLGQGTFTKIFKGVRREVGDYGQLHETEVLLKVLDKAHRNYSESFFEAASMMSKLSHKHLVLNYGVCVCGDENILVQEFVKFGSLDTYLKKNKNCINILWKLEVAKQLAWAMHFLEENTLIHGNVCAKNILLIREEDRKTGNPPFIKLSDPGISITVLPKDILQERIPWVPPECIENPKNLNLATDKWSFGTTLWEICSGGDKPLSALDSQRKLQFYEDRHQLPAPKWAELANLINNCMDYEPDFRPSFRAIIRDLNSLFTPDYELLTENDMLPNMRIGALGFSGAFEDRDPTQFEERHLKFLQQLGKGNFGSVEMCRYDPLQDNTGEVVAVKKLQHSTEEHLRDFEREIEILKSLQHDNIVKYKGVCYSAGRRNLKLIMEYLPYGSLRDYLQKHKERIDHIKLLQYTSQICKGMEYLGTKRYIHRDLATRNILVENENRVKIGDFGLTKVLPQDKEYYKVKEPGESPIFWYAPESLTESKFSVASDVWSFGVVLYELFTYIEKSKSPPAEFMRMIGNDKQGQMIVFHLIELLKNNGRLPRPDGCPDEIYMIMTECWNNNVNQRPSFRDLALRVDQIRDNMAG
compound,measurement,setting,value
COc1cc(Nc2ccccc2C(=O)NCCc2c[nH]c3ccccc23)cc(OC)c1OC,Activity,C6 [1],66%
same,Activity,C6 [2],Active
same,IC50,U-87 MG [3],4.78 µM
same,half-life,[4],11.4 h
same,Activity,U-251 [5],7.95%
same,viability at 8 µM,U-87 MG [6],77.7%
same,inhibition,[7],Active
same,Activity,U-87 MG [8],1.86%
same,Activity,Rattus norvegicus,Active
same,Activity,[9],Non-Toxic
same,Activity,U-87 MG [10],1.1%
same,inhibition,[11],Active
same,Activity,U-87 MG [12],1.23%
same,Activity,U-251 [13],4.78%
same,Activity,U-87 MG [14],2.17%
same,Activity,U-87 MG [15],0%
same,Activity,U-251 [16],Dose-Dependent Effect
same,Activity,U-251 [17],17.4%
same,Cmax,[18],1150 ng/mL
same,Activity,U-251 [19],Active
same,Activity,C6 [20],Active
same,viability at 4 µM,U-87 MG [21],80%
same,Activity,U-251 [22],9.93%
same,Activity,U-251 [23],4.28%
same,Activity,U-87 MG [24],Active
same,Activity,U-251 [25],Active
same,Activity,C6 [26],Active
same,Activity,U-251 [27],7.24%
same,Activity,U-87 MG [28],13.8%
